In patent publication US11739053B2, “P62-ZZ chemical inhibitor” (ID4PHARMA, LLC, priority 2011, dated 2023):

Tests used:
MM1.S cells = assay: Reactive oxygen species detection in MM1.S cells; type: cell-based, human; conditions: 10 μM, 6 hours
Method: FIG. 9A-C: 9A. […] MM1.S cells were cultured with 10 μM of p62-ZZ antagonist for the indicated time, and then cell lysates were collected. Caspase 9, 7 and 3 were detected by Western blotting using anti-caspase 9, 7 and 3 specific antibodies (Cell Signaling). FIG. 9B. Detection of Apoptosis using the TUNEL reaction with MM1.S cells treated with p62-ZZ antagonist. MM1.S cells were treated with 10/μM of p62-ZZ antagonist #3 for 24 hours and then the cells were collected and mounted on glass slides using the cytospin procedure. Terminal deoxynucleotidyl transferase nick end labeling (TUNEL) reactions were conducted using an In Situ Cell Death Detection Kit (Roche) according to the manufacturer's instructions. The stained cells were analyzed using a fluorescence microscope equipped with standard green filter. FIG. 9C. The p62-ZZ antagonist induced Reactive Oxygen Species in MM1.S cells. MM1.S cells were treated with 10 μM of p62-ZZ antagonist #3 for 6 hours. Cells were collected and stained for Reactive Oxygen Species (ROS) using a Total ROS detection kit (Enzo) according to the manufacturer's instructions. The expression of apoptosis markers in p62-ZZ antagonist treated on 25 MM cells was determined to determine the mechanism action of this antagonist.

[1] = test system: Primary human stromal cells; assay: Stromal cell growth, MTT assay; type: cell-based
Method: FIG. 4A-C: 4A. Effect of p62-ZZ inhibitor #3 on myeloma cell growth. MM cell growth was assayed by MTT assay. Data are shown as mean±SD (n=5). FIG. 4B. MTT assay of CD138(+) primary myeloma cells. Data are shown as mean±SD (n=5). FIG. 4C. Effects of p62-ZZ inhibitors on human stromal cell growth. Primary human stromal cells (5×10^3/well) were cultured with 10 μM of p62-ZZ inhibitor (#1-6) containing 10% FCS in IMDM for 48 hours. Stromal cells growth was assayed by MTT assay. Data are shown as the mean±SD (n=5). *P<0.01 compared to vehicle treated culture. MM1.S (3×10^5 cells/well) or CD138 (+) (1×10^5 cells/well) primary myeloma cells were incubated in 96-well plates in the presence of RPMI-1640-10% FCS and various concentrations of p62-ZZ inhibitor #3 at 37° C. 5% CO2 for 48 h to determine the IC50 for inhibiting myeloma cell proliferation.

VCAM-1 expression = assay: TNF-α induced VCAM-1 expression by marrow stromal cells, Western blot; type: cell-based, human; conditions: 3 h pre-treatment, TNFα 48 hours
Method: FIG. 5A-B: 5A. VCAM-1 expression using Western blot analysis. Normal human stromal cells were cultured with/without TNF and p62-ZZ inhibitors (#1-6) for 48 hours. The cell lysates were collected and VCAM-1 expression was measured using an anti-VCAM-1 antibody (Santa Cruz). FIG. 5B. IL-6 production by human and mouse marrow stromal cells by ELISA. Normal human and mouse marrow stromal cells were cultured with/without TNFα and p62-ZZ inhibitors (#1-6) for 48 hours. The cell culture media were collected and IL-6 production measured using an IL-6 ELISA kit (R &D). Data are shown as the means (n=2). Normal human or mouse marrow stromal cells were maintained in 10% FBS-IMDM and treated with p62-ZZ inhibitors (#1-6) for 3 hours. Then TNFα or vehicle was added for 48 hours. Cell lysates were collected and VCAM-1 expression measured by Western blot using an anti-VCAM-1 antibody (Santa Cruz). The culture media were collected and IL-6 production was measured using an IL-6 ELISA kit (R&D Company).

[2] = test system: Human CD34(+) mononuclear cells; assay: CFU-Blast colony formation; type: cell-based; conditions: all concentrations, 7 days
Method: FIG. 7A-C: 7A. CFU-Blast colony formation. Human CD34(+) cells were cultured with p62-ZZ inhibitor #3 and 1 ng/ml of rhIL-3 IL-6 and SCF for 7 days. Data are shown as the mean±SD (n=5). FIG. 7B. Human OCL formation. Non-adherent mononuclear cells (2.5×10^7 cells/10-cm dish) derived from human bone marrow samples were cultured in α-MEM containing 10% FCS, 100 pg/ml recombinant human GM-CSF(R & D) for 7 days. Then the cells were collected and plated (cell density is 1.0×10^6 cells/nil) in α-MEM containing 20% horse serum with 1 ng/ml TNFα. Half-media changes were performed twice a week containing various concentrations of the p62-ZZ inhibitor #3. The cultures were incubated for a total of 2 weeks at 37° C. with 5% CO2 and 95% humidity. The osteoclasts were stained with the 23C6 antibody which recognizes CD51/61. Data are shown as the mean±SD (n=5). *P<0.01 compared to vehicle treated cultures. 7C. OCL formation by wild type and p62−/− mouse osteoclast precursors. Data is shown as the mean±SD (n=4). *: P<0.01 compared to no-inhibitor cultures. Whether p62-ZZ inhibitor #3 affects hematopoesis since osteoclast precursors are derived from hematopoietic cells was examined. […] Colonies were scored after 7 days of culture using an inverted microscope.

OCCNCc1ccc(OCc2ccccc2)c(OCc2ccccc2)c1 [Compound 3, 2-[[3,4-bis(phenylmethoxy)phenyl]methylamino]ethanol]
reactive oxygen species (ROS) production (MM1.S cells): induced reactive oxygen species (ROS) production
toxicity to regular stromal cells [1]: low toxicity
proliferation of stromal cells by MTT assay ([1]; 10 μM, 48 hours): did not change proliferation
VCAM-1 expression induced by TNF-α blocked compared to vehicle (VCAM-1 expression): 30%
CFU-Blast colony formation [2]: do not inhibit
